According to US20260317304A1, “TEAD INHIBITORS AND METHODS OF USE” (Sporos BioDiscovery, Inc., priority 2022, published 2026):

Experiments:
[1] = test system: NCI-H226 lung tumor model; experiment: Mouse xenograft NCI-H226 tumors; format: in vivo, NOD SCID mice
Text: This study evaluated the in vivo anti-tumor efficacy of test compounds in NOD SCID mice for treatment of NCI-H226 lung tumor model.
• Species: Mus Musculus • Strain: NOD SCID • Age: 6-8 weeks • Sex: female • Body weight: 18-22 g • Number of animals inoculated with tumor: 69 mice • Number of animals enrolled in the treatment: 40 mice • Number of unenrolled animals: 29 mice • Animal supplier: Beijing Vital River Biotechnology Experimental Animal Co. Ltd Certification number: 20221110Abzz0619000681
The NCI-H226 tumor cells were maintained in vitro in RPMI 1640 medium supplemented with 10% Fetal bovine serum and 1% Antibiotic-Antimycotic at 37° C. in an atmosphere of 5% CO2 in air. The tumor cells were routinely subcultured twice weekly by trypsin-EDTA. The cells growing in an exponential growth phase were harvested and counted for tumor inoculation.
Each mouse was inoculated subcutaneously at the right flank with NCI-H226 tumor cells (10×10^6+50% matrigel/0.2 mL) for tumor development. Animals were marked with earrings with unique 6 significant figure number for identification. The treatments were started when the average tumor volume reached an average size of 154 mm^3.
The major endpoint was to determine if the tumor growth could be delayed or mice could be cured. Tumor volume was measured twice a week in two dimensions using a caliper, and the volume was expressed in mm^3 using the formula: V=0.5 a×b^2 where a and b are the long and short diameters of the tumor, respectively. The tumor size was then used for calculations of T/C value. The TGI value (in percent) or the T/C value (in percent) is an indication of antitumor effectiveness; T and C are the mean tumor volumes or tumor weights of the treated and control groups, respectively, on a given day.
TGI was calculated for each group using the formula: TGI (%)=[1−(Ti−T0)/(Vi−V0)]×100; Ti is the average tumor volume of a treatment group on a given day, T0 is the average tumor volume of the treatment group on the day of treatment start, Vi is the average tumor volume of the vehicle control group on the same day with T1, and V0 is the average tumor volume of the vehicle group on the day of treatment start.
Relative T/C (%)=TRTV/CRTV×100 (RTV (%)=Vt/V0×100, Vt is the average tumor volume on a given day, V0 is the average tumor volume on the first day of treatment. TRTV is the RTV of a treatment group, and the CRTV is the RTV of the vehicle control group.)
Tumor weight was measured at the study termination. The Tweight/Cweight value (in percent) was calculated according to the formula: Tweight/Cweight (%)=TWtreatment/TWvehicle×100, where T and C are the mean tumor weights of the treatment and control groups respectively
Summary statistics, including mean and the standard error of the mean (SEM), were provided for the tumor volume of each group at each time point.
Statistical analysis of difference in tumor volume among the groups was conducted on the data obtained at the end of the study.
One-tailed T test was performed to compare tumor volumes between two groups. All data were analyzed using GraphPad Prism 6.0. p<0.05 is considered to be statistically significant.
The antitumor effectiveness of the study was analyzed on PG-D28 when vehicle group reached 472 mm^3.

NCI-H226 cells = experiment: Proliferation and cell viability assay, Cell Titer One; format: cell-based, human; conditions: Cell Titer One assay, 6 days
Experimental: Cell proliferation of a TEAD dependent NF2-null mesothelioma cell line, NCI-H226 was assayed using two different protocols. Results were confirmed in two different TEAD-non-dependent lung cancer cell lines, H23 and H28, were used as non-responsive controls, as indicated:
b) Cell Titer One (Promega, #G3582). The effect of the TEAD inhibitors disclosed herein on cell proliferation was also determined using the Promega Substrate Cell Titer Aqueous One Solution Reagent. The TEAD inhibitors were evaluated for the effects on cell proliferation responder (H226) and non-responder negative control cancer cell lines (CAMA1, H28), as well as non-transformed normal human cells (HUVEC, NHDF). Dissociated cells were resuspend in media (depending on cell line, either in DMEM, RPMI, or EMEM all with 10% FBS, with gentamicin as an antibiotic). Cells were seeded at 100 μL/well at 750 cells per well in 96-well plates and allowed to settle and attach. After an incubation of 24 hrs (37° C., 5% CO2, humidified incubator), 100 μL of test compound-containing media was added. A dilution series of 2000× concentrated stock of test compounds was prepared in DMSO, for final concentrations from 0.1 to 10,000 nM. After addition of test compound-containing media, cells were incubated for 6 days at 37° C., 5% CO2, humidified incubators). To measure cell density, 20 μL of Promega Substrate Cell Titer 96 Aqueous One Solution Reagent (Promega, #G3582) to each well was added according to the manufacturer's instructions. Plates were incubated at 37° C. for usually 3-8 hrs, to reach in the control cells (without compound) an OD of 1.5 at 490 nm. The OD was measured using Vmax [Molecular Devices] spectrophotometer plate reader. Media only-wells were used as background controls and cell densities normalized to DMSO vehicle control. EC50 were taken as the concentration achieving 50% of maximal growth inhibition.
For IC50 and EC50 data “A” indicates a value of less than 0.2 μM; the symbol “B” indicates a value in the range of from 0.2 μM up to 1 μM; and the symbol “C” indicates a value of greater than 1 μM. ND: no data.

Compound: Cn1cnc(-c2cc([C@@]3(C)CCNC3=O)ccc2Nc2ccc(C(F)(F)F)cc2)c1 (single isomer, unassigned) [Compound 5, 3-methyl-3-(3-(1-methyl-1H-imidazol-4-yl)-4-((4-(trifluoromethyl)phenyl)amino)phenyl)pyrrolidin-2-one]
- Tumor size (mean ± SEM) ([1]; day 0, 5 mg/kg, PO BID): 154 ± 13 mm^3
- Tumor size (mean ± SEM) ([1]; day 0, 15 mg/kg, PO BID): 154 ± 15 mm^3
- Tumor size (mean ± SEM) ([1]; day 0, 15 mg/kg, PO QD): 154 ± 15 mm^3
- Tumor size (mean ± SEM) ([1]; day 4, 5 mg/kg, PO BID): 140 ± 10 mm^3
- Tumor size (mean ± SEM) ([1]; day 4, 15 mg/kg, PO BID): 127 ± 14 mm^3
- Tumor size (mean ± SEM) ([1]; day 4, 15 mg/kg, PO QD): 153 ± 11 mm^3
- Tumor size (mean ± SEM) ([1]; day 7, 5 mg/kg, PO BID): 129 ± 5 mm^3
- Tumor size (mean ± SEM) ([1]; day 7, 15 mg/kg, PO BID): 115 ± 12 mm^3
- Tumor size (mean ± SEM) ([1]; day 7, 15 mg/kg, PO QD): 149 ± 11 mm^3
- Tumor size (mean ± SEM) ([1]; day 10, 5 mg/kg, PO BID): 124 ± 6 mm^3
- Tumor size (mean ± SEM) ([1]; day 10, 15 mg/kg, PO BID): 110 ± 10 mm^3
- Tumor size (mean ± SEM) ([1]; day 10, 15 mg/kg, PO QD): 148 ± 12 mm^3
- Tumor size (mean ± SEM) ([1]; day 13, 5 mg/kg, PO BID): 82 ± 8 mm^3
- Tumor size (mean ± SEM) ([1]; day 13, 15 mg/kg, PO BID): 84 ± 8 mm^3
- Tumor size (mean ± SEM) ([1]; day 13, 15 mg/kg, PO QD): 116 ± 26 mm^3
- Tumor size (mean ± SEM) ([1]; day 17, 5 mg/kg, PO BID): 77 ± 7 mm^3
- Tumor size (mean ± SEM) ([1]; day 17, 15 mg/kg, PO BID): 62 ± 6 mm^3
- Tumor size (mean ± SEM) ([1]; day 17, 15 mg/kg, PO QD): 94 ± 15 mm^3
- Tumor size (mean ± SEM) ([1]; day 20, 5 mg/kg, PO BID): 73 ± 6 mm^3
- Tumor size (mean ± SEM) ([1]; day 20, 15 mg/kg, PO BID): 63 ± 7 mm^3
- Tumor size (mean ± SEM) ([1]; day 20, 15 mg/kg, PO QD): 95 ± 16 mm^3
- Tumor size (mean ± SEM) ([1]; day 24, 5 mg/kg, PO BID): 55 ± 4 mm^3
- Tumor size (mean ± SEM) ([1]; day 24, 15 mg/kg, PO BID): 49 ± 4 mm^3
- Tumor size (mean ± SEM) ([1]; day 24, 15 mg/kg, PO QD): 85 ± 8 mm^3
- T/C ([1]; day 28, 5 mg/kg, PO BID): 11.2%
- TGI ([1]; day 28, 5 mg/kg, PO BID): 131.3%
- Tumor size (mean ± SEM) ([1]; day 28, 5 mg/kg, PO BID): 53 ± 5 mm^3
- Tumor Volume (mean ± SEM) ([1]; day 28, 5 mg/kg, PO BID (Table 20)): 53 ± 5 mm^3
- T/C ([1]; day 28, 15 mg/kg, PO BID): 9.0%
- TGI ([1]; day 28, 15 mg/kg, PO BID): 134.2%
- Tumor size (mean ± SEM) ([1]; day 28, 15 mg/kg, PO BID): 43 ± 6 mm^3
- Tumor Volume (mean ± SEM) ([1]; day 28, 15 mg/kg, PO BID (Table 20)): 43 ± 6 mm^3
- T/C ([1]; day 28, 15 mg/kg, PO QD): 17.0%
- TGI ([1]; day 28, 15 mg/kg, PO QD): 122.3%
- Tumor size (mean ± SEM) ([1]; day 28, 15 mg/kg, PO QD): 82 ± 12 mm^3
- Tumor Volume (mean ± SEM) ([1]; day 28, 15 mg/kg, PO QD (Table 20)): 82 ± 12 mm^3
- IC50 (NCI-H226 cells; Homo sapiens, NCI-H226, 144 h): < 0.2 µM

Compound: Cn1cnc(-c2cc(C3(C)NC(=O)NC3=O)ccc2Nc2ccc(C(F)(F)F)cc2)c1 (single isomer, unassigned) [Compound 15, 5-methyl-5-(3-(1-methyl-1H-imidazol-4-yl)-4-((4-(trifluoromethyl)phenyl)amino)phenyl)imidazolidine-2,4-dione]
- IC50 (NCI-H226 cells): < 0.2 µM
